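Grown in 96-well plates, cells were treated for 48 hours with each compound at five concentrations. Insufficient inhibition: endpoint recorded as highest concentration tested. GI50 is the concentration that inhibits growth by half. TGI is the concentration that stops growth completely.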
Legend:
Test in all cases: NCI-60 cell line screen, 48 h
ACHN renal = test system: ACHN renal
BT-549 breast = test system: BT-549 breast
CAKI-1 renal = test system: CAKI-1 renal
CCRF-CEM leukemia = test system: CCRF-CEM leukemia
COLO 205 colon = test system: COLO 205 colon
DU-145 prostate = test system: DU-145 prostate
HCC-2998 colon = test system: HCC-2998 colon
HCT-15 colon = test system: HCT-15 colon
HL-60(TB) leukemia = test system: HL-60(TB) leukemia
HOP-62 NSCLC = test system: HOP-62 NSCLC
HOP-92 NSCLC = test system: HOP-92 NSCLC
HS 578T breast = test system: HS 578T breast
HT29 colon = test system: HT29 colon
IGROV1 ovarian = test system: IGROV1 ovarian
K-562 leukemia = test system: K-562 leukemia
KM12 colon = test system: KM12 colon
M14 melanoma = test system: M14 melanoma
MALME-3M melanoma = test system: MALME-3M melanoma
MCF7 breast = test system: MCF7 breast
MDA-MB-231 breast = test system: MDA-MB-231 breast
MDA-MB-435 = test system: MDA-MB-435
MOLT-4 leukemia = test system: MOLT-4 leukemia
NCI-H226 lung = test system: NCI-H226 lung
NCI-H23 lung = test system: NCI-H23 lung
NCI-H460 lung = test system: NCI-H460 lung
NCI/ADR-RES ovarian = test system: NCI/ADR-RES ovarian
OVCAR-4 ovarian = test system: OVCAR-4 ovarian
OVCAR-5 ovarian = test system: OVCAR-5 ovarian
PC-3 prostate = test system: PC-3 prostate
RPMI-8226 leukemia = test system: RPMI-8226 leukemia
SF-295 CNS = test system: SF-295 CNS
SF-539 CNS = test system: SF-539 CNS
SK-MEL-2 melanoma = test system: SK-MEL-2 melanoma
SK-MEL-28 melanoma = test system: SK-MEL-28 melanoma
SK-MEL-5 melanoma = test system: SK-MEL-5 melanoma
SK-OV-3 ovarian = test system: SK-OV-3 ovarian
SN12C renal = test system: SN12C renal
SNB-75 CNS = test system: SNB-75 CNS
SR leukemia = test system: SR leukemia
SW-620 colon = test system: SW-620 colon
T-47D breast = test system: T-47D breast
TK-10 renal = test system: TK-10 renal
U251 CNS = test system: U251 CNS
UACC-257 melanoma = test system: UACC-257 melanoma
UACC-62 melanoma = test system: UACC-62 melanoma
UO-31 renal = test system: UO-31 renal

SMILES: COc1ccc(-c2ccc(-c3ccc(C(=N)N)c(F)c3)s2)cc1
- GI50 (ACHN renal): 209 nM
- TGI (ACHN renal): 448 nM
- GI50 (BT-549 breast): 1570 nM
- TGI (BT-549 breast): 3240 nM
- GI50 (CAKI-1 renal): 1540 nM
- TGI (CAKI-1 renal): 2990 nM
- GI50 (CCRF-CEM leukemia): 286 nM
- TGI (CCRF-CEM leukemia): 853 nM
- GI50 (COLO 205 colon): 184 nM
- TGI (COLO 205 colon): 359 nM
- GI50 (DU-145 prostate): 564 nM
- TGI (DU-145 prostate): 1760 nM
- GI50 (HCC-2998 colon): 230 nM
- TGI (HCC-2998 colon): 478 nM
- GI50 (HCT-15 colon): 211 nM
- TGI (HCT-15 colon): 528 nM
- GI50 (HL-60(TB) leukemia): 215 nM
- TGI (HL-60(TB) leukemia): 462 nM
- GI50 (HOP-62 NSCLC): 1530 nM
- TGI (HOP-62 NSCLC): 3070 nM
- GI50 (HOP-92 NSCLC): 867 nM
- TGI (HOP-92 NSCLC): 2810 nM
- GI50 (HS 578T breast): 1900 nM
- TGI (HS 578T breast): 4710 nM
- GI50 (HT29 colon): 250 nM
- TGI (HT29 colon): 707 nM
- GI50 (IGROV1 ovarian): 1840 nM
- TGI (IGROV1 ovarian): 4510 nM
- GI50 (K-562 leukemia): 216 nM
- TGI (K-562 leukemia): 573 nM
- GI50 (KM12 colon): 291 nM
- TGI (KM12 colon): 861 nM
- GI50 (M14 melanoma): 651 nM
- TGI (M14 melanoma): 1910 nM
- GI50 (MALME-3M melanoma): 2290 nM
- TGI (MALME-3M melanoma): 4700 nM
- GI50 (MCF7 breast): 212 nM
- TGI (MCF7 breast): 502 nM
- GI50 (MDA-MB-231 breast): 215 nM
- TGI (MDA-MB-231 breast): 515 nM
- GI50 (MDA-MB-435): 310 nM
- TGI (MDA-MB-435): 881 nM
- GI50 (MOLT-4 leukemia): 495 nM
- TGI (MOLT-4 leukemia): 1870 nM
- GI50 (NCI-H226 lung): 1990 nM
- TGI (NCI-H226 lung): 4640 nM
- GI50 (NCI-H23 lung): 1430 nM
- TGI (NCI-H23 lung): 3350 nM
- GI50 (NCI-H460 lung): 261 nM
- TGI (NCI-H460 lung): 690 nM
- GI50 (NCI/ADR-RES ovarian): 1090 nM
- TGI (NCI/ADR-RES ovarian): 3440 nM
- GI50 (OVCAR-4 ovarian): 296 nM
- TGI (OVCAR-4 ovarian): 868 nM
- GI50 (OVCAR-5 ovarian): 323 nM
- TGI (OVCAR-5 ovarian): 1120 nM
- GI50 (PC-3 prostate): 787 nM
- TGI (PC-3 prostate): 2290 nM
- GI50 (RPMI-8226 leukemia): 369 nM
- TGI (RPMI-8226 leukemia): 1800 nM
- GI50 (SF-295 CNS): 741 nM
- TGI (SF-295 CNS): 2120 nM
- GI50 (SF-539 CNS): 793 nM
- TGI (SF-539 CNS): 2630 nM
- GI50 (SK-MEL-2 melanoma): 2010 nM
- TGI (SK-MEL-2 melanoma): 4100 nM
- GI50 (SK-MEL-28 melanoma): 1510 nM
- TGI (SK-MEL-28 melanoma): 3190 nM
- GI50 (SK-MEL-5 melanoma): 1230 nM
- TGI (SK-MEL-5 melanoma): 2830 nM
- GI50 (SK-OV-3 ovarian): 1570 nM
- TGI (SK-OV-3 ovarian): 3160 nM
- GI50 (SN12C renal): 622 nM
- TGI (SN12C renal): 1520 nM
- GI50 (SNB-75 CNS): 1620 nM
- TGI (SNB-75 CNS): 3310 nM
- GI50 (SR leukemia): 269 nM
- TGI (SR leukemia): 787 nM
- GI50 (SW-620 colon): 222 nM
- TGI (SW-620 colon): 541 nM
- GI50 (T-47D breast): 185 nM
- TGI (T-47D breast): 413 nM
- GI50 (TK-10 renal): 720 nM
- TGI (TK-10 renal): 1910 nM
- GI50 (U251 CNS): 184 nM
- TGI (U251 CNS): 368 nM
- GI50 (UACC-257 melanoma): 1340 nM
- TGI (UACC-257 melanoma): 2940 nM
- GI50 (UACC-62 melanoma): 1800 nM
- TGI (UACC-62 melanoma): 3700 nM
- GI50 (UO-31 renal): 1010 nM
- TGI (UO-31 renal): 2720 nM
